Test results taken from patent US20240261465A1, “METHOD OF STOPPING BLEEDING USING NANOFIBROUS PEPTIDE HYDROGELS AS HEMOSTASIS AGENT” (KING ABDULLAH UNIVERSITY OF SCIENCE AND TECHNOLOGY, priority 2021, published 2024).
Non-standard residues stand in square brackets, D forms with d. No end group written: not given here. Cha = N[C@@H](CC1CCCCC1)C(=O)O

Key:
plasma = test: Blood coagulation test (aPTT), normal plasma; settings: peptide solution mixed with plasma, 37° C., control without peptides around 40 seconds
Experimental: In one embodiment, an application of the peptide-based hemostatic material in the present disclosure to the bleeding wound produces a coagulation time of less than 40 seconds. The coagulation time of normal plasma (without self-assembling peptides) and plasma with IVZK (SEQ ID NO. 2) or IVFK (SEQ ID NO. 1) hydrogels as initiators for clot formation was compared using a partial thromboplastin time (aPTT) test. The hemostatic properties of the peptides were evaluated by measuring the coagulation time after mixing the peptide solution with plasma. […] The coagulation time of the control (without self-assembling peptides) was around 40 seconds, which is within the normal range.
The aPTT test was performed in a coagulation meter MC 10 PLUS (MERLIN® Medical, Germany). First, 100 μL of plasma was incubated at 37° C., followed by adding 100 μL of a-PTT reagent. Then, the plasma-reagent mixture was incubated at 37° C. for 5 minutes (activation time). Finally, 100 μL of pre-warmed […] calcium chloride was added and time clot formation was recorded. In experimental group, 150 μL of plasma was pre-warmed and then 150 μL of peptide solution was added and the time was recorded. Each test was conducted at least three times.

Human platelets = test: Surface coating and platelet adhesion; type: cell-based; settings: fluorescence microscopy images, FIG. 23; for platelet adhesion: coated surface
Source text: In one embodiment, the self-assembling peptides induce platelet adhenrance. In a preferred embodiment, the self-assembling peptides induce more platelet adhenrance than collagen. One important factor for accelerating blood coagulation could be by promoting the recruitment and adherence of platelets to the site of injury as these processes play a critical role in primary hemostasis (O'Shaughnessy, D. and R. Gill, 19 Cardiothoracic surgery. Practical Hemostasis and Thrombosis, 2009: p. 194). Therefore, platelet adherence induced by peptide hydrogels, type I collagen (positive control), and bovine serum albumin (BSA) (negative comtrol) was tested and compared. […] The scale bar in FIG. 23 is 100 μm. […] The level of platelet adhesion induced by peptide hydrogels, type I collagen (positive control) was also quantified, as shown in FIG. 24. According to FIG. 24, the level of platelet adhesion induced by peptide hydrogels is even higher than that of collagen. […] Therefore, our peptides induced platelet adhesion, a process that may help trigger the coagulation system.
The procedure was done as described previously (Chen, C., et al., Hydrogelation of the short self-assembling peptide 13QGK regulated by transglutaminase and use for rapid hemostasis. ACS applied materials & interfaces, 2016. 8(28): p. 17833-17841). Briefly, for surface coating. 200 μL of 6 mM IVFK (SEQ ID NO. 1), 6 mM IVZK (SEQ ID NO. 2), 0.5% (w/v), BSA (PBS, pH 7.4), and 0.01 mg/mL type I collagen (PBS, pH 7.4) solutions were added to the wells of a 96-well black plate and incubated at 4° C. for 24 h. The wells were washed three times with PBS after removing these solutions. Human platelets were isolated from whole human blood containing anticoagulant sodium citrate (0.38%, w/v) as described previously(Chen, C., et al., Hydrogelation of the short self-assembling peptide 13QGK regulated by transglutaminase and use for rapid hemostasis. ACS applied materials & interfaces, 2016. 8(28): p. 17833-17841). The blood collection was approved by IBEC (18IBEC143). Briefly, platelet-rich plasma (PRP) was collected by centrifugation at 200×g for 20 min at 25° C. Then, PRP was diluted at a 1:1 ratio with PBS and subjected to second centrifugation at 800×g for 12 min at 25° C. The isolated platelets were washed three times with Tyrode's buffer (Hepes 20 mM, glucose […], BSA 1 mg/mL, NaH2PO4 3.3 mM, NaCl 137 mM, KCl 2.7 mM), followed by staining with calcein-AM (1 μg/mL) for 30 min in the dark at room temperature to stained platelets. After washing twice with PBS, the stained platelets were added into the coated wells and incubated for 1 h at 37° C. Subsequently, the supernatants were removed, and the unbound platelets were discarded by washing three times with PBS. The fluorescence of adherent platelets was measured by fluorescence microscopy.

[1] = Determination of gelation time by coagulation meter; type: physicochemical; settings: for gelation time, effect of temperature: 37° C. versus 25° C., FIGS. 1 and 2; for onset of gelation: different temperatures, different concentrations, FIGS. 3 and 4
Experimental: In one embodiment, the nanofiber formation of the self-assembling peptides is affected by concentration of the peptide solution (Luo, Z., S. Wang, and S. Zhang, Fabrication of self-assembling D-form peptide nanofiber scaffold d-EAK16 for rapid hemostasis. Biomaterials, 2011. 32(8): p. 2013-2020). The gelation time of different peptides at various concentrations was recorded using a coagulation meter. FIGS. 1 and 2 illustrate the gelation time of two peptides with different concentrations at two different temperatures (25° C., 37° C.). As shown in both FIGS. 1 and 2, as the concentration of peptide increases, the required time for gelation decreases.
In one embodiment, the peptide gelation is impacted by temperature. […] This effect can be explained by the increasing of kinetic energy which is helps in bond formation within molecules enabling the peptide solution to form gels faster at 37° C. than at 25° C.
In one embodiment, the gelation time is impacted by temperature.
In this study, onset of gelation was assessed using coagulation meter MC 10 PLUS (MERLIN® Medical, Germany). The peptide solution at different concentrations was used and checked under various conditions. For the coagulation experiment, 300 μl of peptide solution was added into a tube and placed in the preheated position for 50 seconds before adding 30 μl of PBS. The time at which the gel formed was then recorded. The temperature was chosen in advance and all solutions were incubated at the desired temperature before conducting the measurements.

## IVFK: tetrameric self-assembling ultrashort peptide IVFK (SEQ ID NO. 1), forms nanofibrous hydrogel
plasma
  coagulation (clotting) time: around 5 seconds
Human platelets
  platelet adhesion: considerable platelet adhesion
  level of platelet adhesion relative to collagen (positive control): comparable to that on the surface of collagen
[1]
  gelation time, effect of temperature: faster gelation at 37 °C
  onset of gelation: occurs faster with the increase of temperature

## IVZK: tetrameric self-assembling ultrashort peptide IVZK (SEQ ID NO. 2), forms nanofibrous hydrogel (IV[Cha]K)
plasma
  coagulation (clotting) time: around 5 seconds
Human platelets
  platelet adhesion: considerable platelet adhesion
  level of platelet adhesion relative to collagen (positive control): comparable to that on the surface of collagen
[1]
  gelation time, effect of temperature: faster gelation at 37 °C
  onset of gelation: occurs faster with the increase of temperature

## bovine serum albumin [BSA, reference compound]
Human platelets
  platelet adhesion: little platelet adhesion
